Usually inhibition stands for the drop in the measured response relative to a control, in per cent.

The source of these data is patent publication US8906925B2, “Pyrido[4,3-B]indoles containing rigid moieties” (Medivation Technologies, Inc., priority 2008, dated 2014).

The target in one assay is histamine receptor H1 (Homo sapiens, UniProt P35367). Description: Histamine H1 radioligand binding ([3H]Pyrilamine). Put shortly:
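Values are percent inhibition of specific [3H]pyrilamine (1.2 nM) binding with compounds at ≤1 μM (1% DMSO vehicle); 180 min incubation at 25 °C, pH 7.4 Tris buffer, on CHO-expressed human H1 receptor; 1 μM pyrilamine defined nonspecific binding, bound ligand counted after filtration.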

In assay [1] the target is T1, human recombinant adrenergic α2A receptor (Homo sapiens, UniProt P08913).
T1 construct: expressed in transfected cells; host or cells: insect Sf9 cells
T1 sequence (P08913 1-465): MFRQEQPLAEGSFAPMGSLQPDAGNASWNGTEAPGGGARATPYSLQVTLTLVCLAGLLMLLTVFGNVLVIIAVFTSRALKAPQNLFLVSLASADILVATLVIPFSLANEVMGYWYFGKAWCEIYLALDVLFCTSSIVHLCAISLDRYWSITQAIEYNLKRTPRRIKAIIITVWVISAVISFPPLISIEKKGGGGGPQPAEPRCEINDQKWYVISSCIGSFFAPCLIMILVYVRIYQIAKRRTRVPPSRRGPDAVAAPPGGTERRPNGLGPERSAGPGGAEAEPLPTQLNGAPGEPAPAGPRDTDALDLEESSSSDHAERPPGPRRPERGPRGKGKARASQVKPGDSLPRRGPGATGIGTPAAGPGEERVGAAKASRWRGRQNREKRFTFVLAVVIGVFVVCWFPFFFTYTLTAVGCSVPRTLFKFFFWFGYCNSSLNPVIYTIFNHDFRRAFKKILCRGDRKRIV
Description: Adrenergic α2A radioligand binding ([3H]MK-912). How it is done: To evaluate in radioligand binding assays the activity of compounds of the invention, human recombinant adrenergic α2A receptor expressed in insect Sf9 cells (Uhlen S et al. J Pharmacol Exp Ther. 271:1558, 1994) in a modified Tris-HCl buffer (50 mM Tris-HCl, pH 7.4, 12.5 mM MgCl2, 2 mM EDTA) was used. Compounds of invention were incubated with 1 nM [^3H]MK-912 for 60 min. at 25° C. MK912 is (2S-trans)-1,3,4,5′,6,6′,7,12b-octahydro-1′,3′-dimethyl-spiro[2H-benzofuro[2,3-a]quinolizine-2,4′(1′H)-pyrimidin]-2′(3′H)-one hydrochloride Non-specific binding was estimated in the presence of 10 μM WB-4101 (2-(2,6-Dimethoxyphenoxyethyl)aminomethyl-1,4-benzodioxane hydrochloride). Receptor proteins were filtered and washed, the filters were then counted to determine [^3H]MK-912 specifically bound. Compounds were screened at 1 μM or lower, using 1% DMSO as vehicle. Biochemical assay results are presented as the percent inhibition of specific binding in Table 9.

The target of assay [2] is T2, human recombinant adrenergic α2B receptor (Homo sapiens, UniProt P18089).
T2 construct: expressed in transfected cells; host or cells: Chinese hamster ovary (CHO-K1) cells
T2 sequence (P18089 1-450): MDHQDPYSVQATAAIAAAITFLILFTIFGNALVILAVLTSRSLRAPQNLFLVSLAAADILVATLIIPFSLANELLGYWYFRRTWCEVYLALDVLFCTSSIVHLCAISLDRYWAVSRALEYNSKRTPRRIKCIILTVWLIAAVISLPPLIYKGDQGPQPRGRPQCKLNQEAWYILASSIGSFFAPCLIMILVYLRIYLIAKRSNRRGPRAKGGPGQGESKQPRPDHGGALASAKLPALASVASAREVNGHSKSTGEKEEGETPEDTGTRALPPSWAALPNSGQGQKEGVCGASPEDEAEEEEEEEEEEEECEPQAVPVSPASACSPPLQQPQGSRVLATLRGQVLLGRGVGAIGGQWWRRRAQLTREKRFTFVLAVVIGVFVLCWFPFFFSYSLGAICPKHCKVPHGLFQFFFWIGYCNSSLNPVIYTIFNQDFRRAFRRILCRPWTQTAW
Kind of assay: Adrenergic α2B radioligand binding ([3H]Rauwolscine). Here is the method: To evaluate in radioligand binding assays the activity of compounds of the invention, human recombinant adrenergic α2B receptor expressed in Chinese hamster ovary (CHO-K1) cells (Uhlen S et al. Eur J Pharmacol. 343(1):93, 1998) in a modified Tris-HCl buffer (50 mM Tris-HCl, pH 7.4, 12.5 mM MgCl2, 1 mM EDTA, 0.2% BSA) was used. Compounds of the invention were incubated with 2.5 nM [^3H]Rauwolscine for 60 min. at 25° C. Non-specific binding was estimated in the presence of 10 μM Prozosin. Receptor proteins were filtered and washed, the filters were then counted to determine [^3H]Rauwolscine specifically bound. Compounds were screened at 1 μM or lower, using 1% DMSO as vehicle. Biochemical assay results are presented as the percent inhibition of specific binding in Table 9.

Assay [3] has as its target human dopamine D2L receptor (Homo sapiens, UniProt P14416). Kind of assay: Dopamine D2L radioligand binding ([3H]Spiperone). The source says:
Non-specific binding was estimated in the presence of […] Haloperidol. Receptor proteins were filtered and washed, the filters were then counted to determine [^3H]Spiperone specifically bound. […] Biochemical assay results are presented as the percent inhibition of specific binding in Table 9.

For assay [4], the target named is T3, human recombinant serotonin (5-Hydroxytryptamine) 5-HT6 receptor (Homo sapiens, UniProt P50406).
T3 construct: expressed in transfected cells; host or cells: human HeLa cells
T3 sequence (P50406 whole entry): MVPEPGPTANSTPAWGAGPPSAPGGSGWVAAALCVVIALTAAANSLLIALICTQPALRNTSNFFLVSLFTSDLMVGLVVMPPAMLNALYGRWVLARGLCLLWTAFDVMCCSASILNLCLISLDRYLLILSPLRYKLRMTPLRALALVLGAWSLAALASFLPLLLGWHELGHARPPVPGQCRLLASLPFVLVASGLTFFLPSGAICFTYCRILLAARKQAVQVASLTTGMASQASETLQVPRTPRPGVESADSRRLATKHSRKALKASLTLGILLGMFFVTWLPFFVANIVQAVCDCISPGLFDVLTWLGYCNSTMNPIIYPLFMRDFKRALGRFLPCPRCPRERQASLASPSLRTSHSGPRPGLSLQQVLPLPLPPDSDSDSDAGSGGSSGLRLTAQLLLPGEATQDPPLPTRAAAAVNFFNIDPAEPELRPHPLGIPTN
Description: Serotonin 5-HT6 radioligand binding ([3H]LSD). The settings on record: read-out: Inhibition of ligand binding, Serotonin 5-HT6 (percent inhibition of specific binding); for inhibition at 1 µM: compound at 1 μM; for inhibition at 0.1 µM: compound at 0.1 μM. Here is the method:
Compounds of the invention were incubated with 1.5 nM [3H]Lysergic acid diethylamide (LSD) for 120 min. at 37° C. […] Receptor proteins were filtered and washed, the filters were then counted to determine [3H]LSD specifically bound. Compounds were screened at 1 μM or lower, using 1% DMSO as vehicle. Biochemical assay results are presented as the percent inhibition of specific binding in Table 10.

[5] abbreviates: read-out: Histamine Binding (1 μM) H1, percent inhibition of specific binding, 1 μM.
The mark [6] stands for this setting: compound at 1 μM, read-out: Inhibition of ligand binding, Adrenergic α2A (percent inhibition of specific binding).
[7] abbreviates: compound at 1 μM, […] [3H]Rauwolscine, read-out: Inhibition of ligand binding, Adrenergic α2B (percent inhibition of specific binding).
[8] abbreviates: compound at 1 μM, […] [3H]Spiperone, read-out: Inhibition of ligand binding, Dopamine D2L (percent inhibition of specific binding).
Where [9] appears, read: percent inhibition of specific binding, compound at 1 μM, read-out: Inhibition of ligand binding, Adrenergic α2A.
Where [10] appears, read: percent inhibition of specific binding, compound at 1 μM, read-out: Inhibition of ligand binding, Adrenergic α2B.
The mark [11] stands for this setting: percent inhibition of specific binding, compound at 1 μM, read-out: Inhibition of ligand binding, Dopamine D2L.
Setting [12] is: percent inhibition of specific binding, compound at 1 μM, 1 µM.

Where “and” joins values, the source holds several entries; their conditions need not be identical. Equal entries are not always repeated. Where two headings read alike, the source gives them in different places.

Sequence of histamine receptor H1 (P35367 whole entry): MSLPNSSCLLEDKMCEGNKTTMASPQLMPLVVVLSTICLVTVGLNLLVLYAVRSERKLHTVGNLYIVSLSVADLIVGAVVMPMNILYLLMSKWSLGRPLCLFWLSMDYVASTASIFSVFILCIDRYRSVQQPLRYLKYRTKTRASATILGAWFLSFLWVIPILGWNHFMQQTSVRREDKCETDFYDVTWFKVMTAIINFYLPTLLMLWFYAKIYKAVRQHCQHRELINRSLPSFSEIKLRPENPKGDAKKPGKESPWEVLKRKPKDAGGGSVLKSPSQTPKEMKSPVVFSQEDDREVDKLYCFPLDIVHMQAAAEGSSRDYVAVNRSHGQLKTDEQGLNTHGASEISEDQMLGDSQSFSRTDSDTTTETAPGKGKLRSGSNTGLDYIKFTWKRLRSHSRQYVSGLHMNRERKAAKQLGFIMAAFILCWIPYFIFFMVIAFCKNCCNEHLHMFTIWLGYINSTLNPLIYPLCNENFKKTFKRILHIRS
Sequence of human dopamine D2L receptor (P14416 whole entry): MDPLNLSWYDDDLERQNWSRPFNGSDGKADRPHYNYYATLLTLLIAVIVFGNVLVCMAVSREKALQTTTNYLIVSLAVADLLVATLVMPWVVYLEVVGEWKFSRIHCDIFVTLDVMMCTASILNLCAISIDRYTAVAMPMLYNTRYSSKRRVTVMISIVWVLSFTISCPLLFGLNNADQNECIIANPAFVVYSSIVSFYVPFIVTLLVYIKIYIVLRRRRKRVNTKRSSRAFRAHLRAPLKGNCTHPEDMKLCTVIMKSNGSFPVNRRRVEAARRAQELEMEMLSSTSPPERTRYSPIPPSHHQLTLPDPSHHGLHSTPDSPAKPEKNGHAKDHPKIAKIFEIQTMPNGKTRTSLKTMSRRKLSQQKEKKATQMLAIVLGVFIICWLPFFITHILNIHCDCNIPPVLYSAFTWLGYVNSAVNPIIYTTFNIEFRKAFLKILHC

On to `CN1CCc2c(c3cc(Cl)ccc3n2C#Cc2ccc(F)cc2)C1` [Compound No. 475, 8-chloro-5-((4-fluorophenyl)ethynyl)-2-methyl-2,3,4,5-tetrahydro-1H-pyrido[4,3-b]indole], for which the inhibition at 1 µM on histamine receptor H1 (setting [5]) was determined as 34%; in assay [1] (setting [6]) it was 93%; in assay [2] (setting [7]), 106%; in assay [3] (setting [8]), 95%; in assay [4] it was 99%.

On to `C/C(=C\n1c2c(c3cc(Cl)ccc31)CN(C)CC2)c1ccccc1` [compound 106, (E)-8-chloro-2,3,4,5-tetrahydro-2-methyl-5-(2-phenylprop-1-enyl)-1H-pyrido[4,3-b]indole], for which the inhibition at 1 µM on histamine receptor H1 (setting [5]) was found to be 84%; in assay [1] (setting [9]) it was 93%; in assay [2] (setting [10]) it was 114%; in assay [3] (setting [11]), 90%; in assay [4], 104%.

With `C=C(Cn1c2c(c3cc(C)ccc31)CN(C)CC2)c1ccc(F)cc1` [Compound 132, 5-(2-(4-fluorophenyl)allyl)-2,3,4,5-tetrahydro-2,8-dimethyl-1H-pyrido[4,3-b]indole], the inhibition at 1 µM on histamine receptor H1 (setting [5]) stood at 96%; in assay [1] (setting [9]), 97%; in assay [2] (setting [10]) it was 118%; in assay [3] (setting [11]) it was 91%; in assay [4], 100%.

On to `CC(=Cn1c2c(c3cc(Cl)ccc31)CN(C)CC2)c1ccc(Cl)cc1Cl` (stereo in doubt) [Compound 111, (Z)-8-chloro-5-(2-(2,4-dichlorophenyl)prop-1-enyl)-2,3,4,5-tetrahydro-2-methyl-1H-pyrido[4,3-b]indole], for which the “Histamine Binding (1 μM) H1, percent inhibition of specific binding” value at histamine receptor H1 was 73% and 74%. Further, in assay [1] (setting [12]), the “Inhibition of ligand binding, Adrenergic α2A” value is 101%. Also, the inhibition at 1 µM in assay [2] (setting [10]) was found to be 90%. The “Inhibition of ligand binding, Dopamine D2L” value in assay [3] (setting [12]) is 27% and 29%. In assay [4], the inhibition at 0.1 µM amounted to 71% and the inhibition at 1 µM stood at 94%.

On to `CN1CCc2c(c3cc(Cl)ccc3n2C/C=C/c2ccc(F)cc2)C1` [Compound 126, 5-(4-fluorocinnamyl)-8-chloro-2,3,4,5-tetrahydro-2-methyl-1H-pyrido[4,3-b]indole], for which the inhibition at 1 µM on histamine receptor H1 (setting [5]) was determined as 103%; in assay [1] (setting [9]), 87%; in assay [2] (setting [10]) it was 116%; in assay [3] (setting [11]), 84%; in assay [4], 95%.

In the case of `Cc1ccc2c(c1)c1c(n2CC(O)c2ccc(C)nc2)CCN(C)C1` (centres unmarked) [Compound 48, 2-(2,8-dimethyl-3,4-dihydro-1H-pyrido[4,3-b]indol-5(2H)-yl)-1-(6-methylpyridin-3-yl)ethanol], the inhibition at 1 µM came to 93% at histamine receptor H1 (setting [5]); 83% in assay [1] (setting [9]); 100% in assay [2] (setting [10]); 8% in assay [3] (setting [11]); 59% in assay [4].

Consider `CCOC(=O)/C=C(/Cn1c2c(c3cc(C)ccc31)CN(C)CC2)c1ccc(F)cc1` [Compound No. 350, (E)-ethyl 4-(2,8-dimethyl-3,4-dihydro-1H-pyrido[4,3-b]indol-5(2H)-yl)-3-(4-fluorophenyl)but-2-enoate], for which the “Histamine Binding (1 μM) H1, percent inhibition of specific binding” value at histamine receptor H1 was determined as 37%. Besides, the inhibition at 1 µM turned out to be 27% at histamine receptor H1 (setting [5]); 95% in assay [1] (setting [6]); 107% in assay [2] (setting [7]); 12% in assay [3] (setting [8]); 103% in assay [4]. For the same compound, the “Inhibition of ligand binding, Dopamine D2L (percent inhibition of specific binding)” value in assay [3] (compound at 1 μM, […] [3H]Spiperone) was determined as 21%.

As to `C/C(=C\n1c2c(c3cc(Cl)ccc31)CN(C)CC2)c1ccc(F)cc1` [Compound 83, (E)-8-chloro-5-(2-(4-fluorophenyl)prop-1-enyl)-2,3,4,5-tetrahydro-2-methyl-1H-pyrido[4,3-b]indole], the “Histamine Binding (1 μM) H1, percent inhibition of specific binding” value at histamine receptor H1 was 60% and 79% and 84%. Also, the inhibition at 1 µM was determined as 98% in assay [1] (setting [9]), 121% in assay [2] (setting [10]), 98% in assay [3] (setting [11]) and 102% in assay [4]. Also, in assay [4], the inhibition at 0.1 µM was 96%.

For `Cc1ccc2[nH]c3c(c2c1)CN(C)CC3` [Compound 3, 2,8-Dimethyl-2,3,4,5-tetrahydro-1H-pyrido[4,3-b]indole], the inhibition at 1 µM at histamine receptor H1 (read-out: Histamine Binding (1 μM) H1, percent inhibition of specific binding) was determined as 30%; in assay [1] (read-out: Inhibition of ligand binding, Adrenergic α2A), 58%; in assay [2] (read-out: Inhibition of ligand binding, Adrenergic α2B), 91%; in assay [3] (read-out: Inhibition of ligand binding, Dopamine D2L), 14%; in assay [4], 58%.

Turning to `Cc1ccc2c(c1)c1c(n2CC(C)(O)c2ccncc2)CCN(C)C1` (centres unmarked) [Compound 62, 1-(1,2,3,4-tetrahydro-2,8-dimethylpyrido[4,3-b]indol-5-yl)-2-(pyridin-4-yl)propan-2-ol], the inhibition at 1 µM on histamine receptor H1 (setting [5]) is 38%; in assay [1] (setting [9]) it was 57%; in assay [2] (setting [10]) it was 103%; in assay [3] (setting [11]), 7%; in assay [4], 43%.

Turning to `COc1ccc(C(C)(O)Cn2c3c(c4cc(C)ccc42)CN(C)CC3)cc1F` (centres unmarked) [Compound 173, 1-(2,8-dimethyl-3,4-dihydro-1H-pyrido[4,3-b]indol-5(2H)-yl)-2-(3-fluoro-4-methoxyphenyl)propan-2-ol], the inhibition at 1 µM turned out to be 91% on histamine receptor H1 (setting [5]); 94% in assay [1] (setting [9]); 98% in assay [2] (setting [10]); 32% in assay [3] (setting [11]); 85% in assay [4].
